Assays:
[1] = biological target: T1, OxLight1 (Homo sapiens, UniProt O43614, DEL254-292/I293E/K294R/L160H/M161K/Q254E); assay type: cell-based; conditions: Almorexant 10 μM after OXB 5 μM
T1 sequence (O43614 with tags, fused parts or gaps L160H/M161K/DEL254-292/I293E/K294R): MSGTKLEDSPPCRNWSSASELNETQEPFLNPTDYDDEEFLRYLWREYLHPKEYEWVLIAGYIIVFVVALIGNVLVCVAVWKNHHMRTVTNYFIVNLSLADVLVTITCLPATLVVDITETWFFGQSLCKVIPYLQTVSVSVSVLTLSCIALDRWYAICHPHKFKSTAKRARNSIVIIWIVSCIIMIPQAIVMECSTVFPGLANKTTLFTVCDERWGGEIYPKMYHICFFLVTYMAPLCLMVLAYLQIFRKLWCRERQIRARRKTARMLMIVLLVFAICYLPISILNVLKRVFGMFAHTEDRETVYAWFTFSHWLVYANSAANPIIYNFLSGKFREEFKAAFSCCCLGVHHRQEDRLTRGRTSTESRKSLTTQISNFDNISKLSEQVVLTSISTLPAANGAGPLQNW

[2] = system: OxLight1 in basal forebrain or LH; assay: Photometry with polysomnographic recordings across sleep-wake states; assay type: in vivo, mouse; conditions: 50 mg/kg, per os, mice
[3] = system: OxLight1; assay: Photometry during anesthesia; assay type: in vivo, mouse; conditions: isoflurane 2% 10 min or medetomidine 0.5 mg/kg i.p., mice
[4] = biological target: T1, OxLight1; assay type: cell-based; conditions: 10 μM, HEK293T
[5] = biological target: T1, OxLight1; assay type: cell-based; conditions: OxLight1, 10 μM orexin, HEK cells, mean ± SEM
[6] = biological target: T1, OxLight1; assay type: cell-based; conditions: 10 μM, HEK293T, 37°C, mono-exponential fit, n = 8 dishes, mean ± SEM
[7] = system: OX2R; assay: Intracellular calcium signaling, OX2R-expressing HEK293T cells; assay type: cell-based, human; conditions: orexin-A and orexin-B
[8] = system: OX2R; assay: beta-Arrestin-2 recruitment to OX2R, TIRF microscopy; assay type: cell-based, human; conditions: agonist stimulation 15 min
[9] = system: OX2R; assay: Mini-G protein recruitment to OX2R, TIRF microscopy; assay type: cell-based, human; conditions: OXB 50 nM

For `CNC(=O)[C@@H](c1ccccc1)N1CCc2cc(OC)c(OC)cc2[C@@H]1CCc1ccc(C(F)(F)F)cc1` [Almorexant], the “reversal of fluorescence response” value [1] was “fully reversed”.

With `Cc1ccc(-n2nccn2)c(C(=O)N2CCN(c3nc4cc(Cl)ccc4o3)CC[C@H]2C)c1` [Suvorexant] the “effect on OxLight1 response across sleep-wake states” value [2] was “significantly reduced the response of OxLight1”.

In the case of `FC(F)OC(Cl)C(F)(F)F` (stereo not shown) [isoflurane], the “effect on OxLight1 signal” value [3] is reported as “significant decrease in OxLight1 signal”.

For `Cc1cccc(C(C)c2cnc[nH]2)c1C` (stereo not shown) [medetomidine], the “effect on OxLight1 signal” value [3] was “no change”.

In the case of Dynorphin, the “OxLight1 response to neuropeptide” value [4] is reported as “lack of response”.

In the case of “orexin-B: endogenous orexin neuropeptide”, the “ΔF/F0, maximal response” value [5] is reported as 859 ± 27%, the “activation time constant τ” value [6] is reported as 618 ± 98 ms and the “intracellular Ca2+ response” value [7] is reported as “robust intracellular Ca^2+ responses”.

B1: OX2R: wild-type human orexin type-2 receptor (protein, UniProt O43614 1-444, looked up)
Orexin receptor type 2: MSGTKLEDSPPCRNWSSASELNETQEPFLNPTDYDDEEFLRYLWREYLHPKEYEWVLIAGYIIVFVVALIGNVLVCVAVWKNHHMRTVTNYFIVNLSLADVLVTITCLPATLVVDITETWFFGQSLCKVIPYLQTVSVSVSVLTLSCIALDRWYAICHPLMFKSTAKRARNSIVIIWIVSCIIMIPQAIVMECSTVFPGLANKTTLFTVCDERWGGEIYPKMYHICFFLVTYMAPLCLMVLAYLQIFRKLWCRQIPGTSSVVQRKWKPLQPVSQPRGPGQPTKSRMSAVAAEIKQIRARRKTARMLMIVLLVFAICYLPISILNVLKRVFGMFAHTEDRETVYAWFTFSHWLVYANSAANPIIYNFLSGKFREEFKAAFSCCCLGVHHRQEDRLTRGRTSTESRKSLTTQISNFDNISKLSEQVVLTSISTLPAANGAGPLQNW
For B1, the β-arrestin-2 engagement [8] was “robust β-arrestin-2 engagement” and the mini-G recruitment [9] was “selective and strong recruitment of mini-Gq”.
